In series [1] the test system is cell layer of the invention. In words: Ginkgo extract ingredient profiles, apical vs basal side of the cell layer. It is filed as in vitro ADME, human. The protocol:
FIG. 8. Representative chromatogram of intact flavonol glycosides determined in fluid from the apical side of the cell layer 60 minutes after application of standardized ginkgo extract (equivalent of 10 mg extract).
FIG. 9. Representative chromatogram of intact flavonol glycosides determined in fluid from the basal side of the cell layer 60 minutes after application of standardized ginkgo extract (equivalent of 10 mg extract).
FIG. 10. Representative chromatogram of ginkgolides determined in fluid from the apical side of the cell membrane 60 minutes after application of standardized ginkgo extract (equivalent of 20 mg extract).
FIG. 11. Representative chromatogram of ginkgolides determined in fluid from the basal side of the cell layer 60 minutes after application of standardized ginkgo extract (equivalent of 400 mg extract).
In some embodiments, compositions for processing in accordance with the methods of the invention may include natural substances, such as crude extracts or formulations from natural products such as plants, which may be dissolved or suspended in an aqueous solution, such as a pH buffered solution or an artificial intestinal fluid. In alternative embodiments, a sample of these substances may be treated with artificial gastric juices to test prior to processing with the cell layers of the invention, for example to test for potential decomposition of ingredients under acidic conditions. In some embodiments, a known concentration of the solution or composition for processing, in either buffered solution or artificial intestinal fluid, may be applied to the apical or first side of the cell layer (membrane). Subsequently, one or more samples may be collected from the basal or second side of the cell layer, which may for example contain a cell culture medium or human plasma or components of human plasma such as albumin. In alternative embodiments, samples may be taken from the apical and basal sides for ingredient identification and/or quantification. Common analytical approaches such as high performance liquid chromatography (HPLC), mass spectrometry (MS), gas chromatography (GC), LC/MS, or GC/MS may then be used for the identification or quantification of the components present in the physiologically modified composition.
Although the invention may be used to conduct permeability screening in a manner similar to how Caco-2 the industry standard is used, it has a unique and novel application in identifying absorbable active ingredients in natural health products (or natural products or nutraceuticals or botanicals or herbals or dietary supplements) or any products that contain mixtures of ingredients of interest (as marker substances or active ingredients) or botanicals. The idea is as follows. Similar to pharmaceutical development, components are not considered active unless they are absorbed into the blood stream. A number of methods have been developed to measure the activities of botanical extracts; very few have measured the active components, let alone absorbable components that are active. It has been shown time and again that marker components that have in vitro activities are not absorbed. The active ingredient profile determined using in vitro methods is usually erroneous; this is particularly true for the proportion of the ingredients required because the absorption of individual components is potentially different. A good example is the determination of the ingredient profiles of Ginkgo biloba. People think that the ratios of the ingredients in the herb are important (See FIGS. 8, 10, Tables 3, 4, apical side ratios). But it is only the absorbed ingredients that can have activity and not all ingredients are absorbed or absorbed at the same rate. Therefore, the profiles of absorbed ingredients will differ from the profiles of ingredients in the product, and it is the absorbed ingredient profiles that are biologically most relevant. […]

Series [2] concerns SCBN cells. The series is described as follows: Microvilli structure of SCBN cells by SEM. It is filed as cell-based, human. Conditions: SEM 48 hours after medium change; for length of microvilli: 5 μM Ro31-8220 and/or 5 mM sodium butyrate in base medium. The method, then:
(§1) To assay the structure of microvilli and to measure TEER, SCBN cells were cultured with DMEM media supplemented with FBS and collected at 24 hours post confluence. Harvested cells were seeded at the density of 1E5 cells/well in Falcon multiple insert plates (0.31 cm2/well). […] Forty-eight hours after medium change, SCBN cells were processed for SEM examination following conventional SEM sample preparation. Assessments of microvilli structure were made from SEM images.

For series [3], the system named is SCBN cells. In words: TEER of SCBN cell layers in different culture conditions. It counts as cell-based, human. Conditions: SCBN cells on rat-tail collagen, supplemented base medium; day 3 (48 hours after medium change). The protocol:
FIG. 1: illustrates the TEER values of SCBN cells in different culture conditions. TEER measurement was conducted by using EVOM voltmeter from World Precision Instrument.
TEER values may be assayed using any conventional equipment capable of measuring electrical resistance, such as […] from World Precision Instruments.
as §1

Series [4] concerns SCBN cells. The series is described as follows: Enzyme expression in SCBN cell lysate. It counts as cell-based, human. The note with it: 5 μM Ro 31-8220 alone. The method, then:
FIG. 2: illustrates the expression of enzymes in SCBN cells cultured under culture conditions of the invention. Enzyme activity is expressed as milliunit per mg of protein. One unit equals the digestion of one μmole of substrate per minute at 37° C. AP: Alkaline phosphatase; DPP: dipeptidylpeptidase-IV; APN: aminopeptidase N; APA: aminopeptidase A.
To assay patterns of enzyme expression, SCBN cells were cultured with DMEM media supplemented with FBS and collected at 24 hours post confluence. SCBN cells were seeded with DMEM supplemented with FBS at 1E5 cells/well in non-coated and rat-tail collagen-coated Falcon multiple insert plate. Twenty-four hours after seeding media were change with DMEM supplemented with FBS with DMEM supplemented with FBS in non-coated inert wells whereas the media in rat-tail collagen-coated wells were changed with Kinetana base media supplemented with 5 μM of Ro31-8220 and 5 mM of sodium butyrate. Forty-eight hours after medium change, SCBN cells were lysed with ⅕ strength of Tris buffered saline on ice and the whole cell lysate was assayed for enzyme activity by incubating the cell lysate with specific substrate for 60 minutes at 37° C. […]

The next series has as its system Caco-2. In words: Permeability across CaCo-2 monolayers. It counts as in vitro ADME, human. The source says: (§2) (He, Murby et al. 1998) relate the permeability profile of PEG oligomers to tight junction pore size. Their data in CaCo-2 correspond very closely to Kinetana's data with Caco-2, in that there is a steep drop-off in permeability between molecular weights 200 and 450, then a leveling off. The invention permeability, in contrast, declines slowly and continuously from MW 200 to over 1,000 Da (FIG. 3).
(§3) The bioavailability of PEG 900 is reported to be 10% (Yee 1997).
(In general: Passage across Caco-2 layers is used to estimate intestinal permeability.)

For series [5] the following is noted: Yee 1997; cited from earlier work.
For series [6], the system named is monolayers of the invention (Kinetana cell line). The series is described as follows: Permeability across monolayers of the invention. It counts as in vitro ADME, human.
Text: as §2, §3

In series [7] the test system is Kinetana cells using the Buret growth condition. The series is described as follows: Permeability in Kinetana cells using the Buret growth condition. It counts as in vitro ADME, human.
Text: The proprietary growth conditions result in a different paracellular diffusion performance of the Kinetana cell line compared with CaCo-2 and T-84 human colon cancer cell lines (He, Murby et al. 1998) and also SCBN with the Buret condition. The proprietary condition correlates better with human paracellular marker permeability, and this appears to relate to the differences in tight junction pore size between the new method and the others. The evidence for these claims is as follows.
as §3

The mark [8] stands for this setting: apical side (pre-absorption), six commercial ginkgo extract samples.
[9] abbreviates: basal side (absorbed ingredients), six commercial ginkgo extract samples.

The values that follow come from patent publication US20040115801A1, “Model epithelial cell cultures” (KINETANA GROUP INC., priority 2002, published 2004).

Where two headings read alike, the source gives them in different places.

Take `CC(C)(C)[C@]1(O)CC2OC(=O)CC23C(=O)OC2OC(=O)[C@H](O)C231` (some centres unmarked) [Bilobalide]: the “Ginkgo terpene lactone components ratio to Ginkgolide A, Apical side Mean” value in series [1] (setting [8]) worked out at 0.66. In series [1] (setting [9]), the “Ginkgo terpene lactone components ratio to Ginkgolide A, Basal side Mean” value was 0.44.
As for `C[C@@H]1C(=O)O[C@H]2C[C@@]34[C@H]5C[C@@H](C(C)(C)C)[C@]36[C@@H](OC(=O)[C@@H]6O)O[C@@]4(C(=O)O5)[C@]21O` [Ginkgolide A], the “Ginkgo terpene lactone components ratio to Ginkgolide A, Apical side Mean” value in series [1] (setting [8]) is on record as 1.00. The “Ginkgo terpene lactone components ratio to Ginkgolide A, Basal side Mean” value in series [1] (setting [9]) came out at 1.00.
For `CC1C(=O)OC2C(O)C34C5CC(C(C)(C)C)C36C(OC(=O)C6O)OC4(C(=O)O5)C12O` (centres unmarked) [Ginkgolide B], in series [1] (setting [8]), the “Ginkgo terpene lactone components ratio to Ginkgolide A, Apical side Mean” value was 0.20. For the same compound, the “Ginkgo terpene lactone components ratio to Ginkgolide A, Basal side Mean” value in series [1] (setting [9]) is listed as 0.12.
Regarding `Cn1cc(C2=C(c3cn(CCCSC(=N)N)c4ccccc34)C(=O)NC2=O)c2ccccc21` [Ro31-8220, 2-{1-[3-(amidinothio)propyl]-1H-indol-3-yl}-3-(1-meethylindol-3-yl)-maleimide methanesulfonate], the length of microvilli result in the series with SCBN cells [2] is listed as “did not measurably increase”. Further, the “percentage of cells with long microvilli” value with SCBN cells [2] (compared with base medium) is on record as “did not measurably increase”. In the series with SCBN cells [3], the TEER value result is “about 680 ohm.cm^2”. In addition, the “expression of alkaline phosphatase activity” value in the series on SCBN cells [4] is recorded as “up-regulate”.
In the case of `C[C@@H]1O[C@@H](OC[C@H]2O[C@@H](Oc3c(-c4ccc(O)c(O)c4)oc4cc(O)cc(O)c4c3=O)[C@H](O)[C@@H](O)[C@@H]2O)[C@H](O)[C@H](O)[C@H]1O` [Rutin], the “Ginkgo intact flavone components ratio to Rutin, Apical Mean” value in series [1] (setting [8]) came out at 1.00. For the same compound, in series [1] (setting [9]), the “Ginkgo intact flavone components ratio to Rutin, basal Mean” value was found to be 1.00.
Compound `CCCC(=O)[O-].[Na+]` [sodium butyrate] yielded a length of microvilli with SCBN cells [2] of less than 0.1 um. Moreover, the TEER value result with SCBN cells [3] is “about 175 ohm.cm^2”.
Consider Ginkgolide C, for which the “Ginkgo terpene lactone components ratio to Ginkgolide A, Apical side Mean” value in series [1] (setting [8]) worked out at 0.32. The “Ginkgo terpene lactone components ratio to Ginkgolide A, Basal side Mean” value in series [1] (setting [9]) was 0.20.
For the compound Ginkgolide J, in series [1], the “Ginkgo terpene lactone components ratio to Ginkgolide A, Apical side Mean” value is 0.86 and the “Ginkgo terpene lactone components ratio to Ginkgolide A, Basal side Mean” value is reported as 0.55.
As for PEG 900, the permeability entry was “too low to be measured” with Caco-2, roughly 1 ×10⁻⁶ cm/s in series [6] (conditions of the invention) and “too low to be measured” in series [7]. In series [5], the “bioavailability (reported)” value was 10%. Further, the predicted human bioavailability entry in series [6] (predicted from permeability under conditions of the invention) is “around 12%”.
